Key:
[1] = system: S. cerevisiae PE2; assay: S. cerevisiae salt and GVL toxicity testing (growth, OD600); format: cell-based; details: S. cerevisiae PE2, optical density after 40 hr of growth, 30° C., Yeast Nitrogen Base, 0.5% glucose plus wt % GVL or NaCl; FIGS. 22A/22B
Method: The strain used in these experiments was S. cerevisiae PE2 and in all cases was grown at 30° C. The toxicity medium used was formulated using 10x Yeast Nitrogen Base without Amino Acids, 0.5% glucose and the appropriate wt % of GVL or sodium chloride (Sigma). A single colony of S. cerevisiae was picked from YPD agar and grown overnight in 5 ml of YPD media (glass culture tubes, 20×150 mm, Fisher Scientific) agitated at 250 rpm in the incubator shaker. The resulting solution was used to inoculate 2 ml of the toxicity medium to an OD600 of 0.01 in 13×100 mm tubes (Fisher Scientific). The tubes were incubated for 40 hours under same conditions and sampled as described above.

[2] = system: E. coli MG1655; assay: E. coli salt and GVL toxicity testing (growth, OD600); format: cell-based; details: E. coli MG1655, optical density after 24 hr of growth, 37° C., MOPS minimal media with 0.5% glucose plus wt % GVL or NaCl; FIGS. 22A/22B
Method: The strain used in these experiments was wild type E. coli MG1655 and in all cases was grown at 37° C. The toxicity medium used was based on MOPS minimal media with 0.5% glucose and supplemented with the appropriate wt % of GVL or sodium chloride (Sigma). A single colony of E. coli was picked from LB agar and grown overnight in 5 ml of LB media (glass culture tubes, 20×150 mm, Fisher Scientific) agitated at 250 rpm in an incubator shaker (New Brunswick Scientific). The resulting solution was used to inoculate 2 ml of the toxicity medium to an OD600 of 0.01 in 13×100 mm tubes (Fisher Scientific). The tubes were incubated for 24 hours under the same conditions as described in the main methods and a final OD600 measured using a Biomate 3 spectrophotometer (ThermoFisher).

CC1CCC(=O)O1 (stereo not shown) [GVL, gamma-valerolactone]
effect of concentration on microbial growth (optical density) [1]: can inhibit microbial growth
effect of concentration on microbial growth (optical density) [2]: can inhibit microbial growth

[Cl-].[Na+] [NaCl, sodium chloride]
effect of concentration on microbial growth (optical density) [1]: can inhibit microbial growth
effect of concentration on microbial growth (optical density) [2]: can inhibit microbial growth

From patent US9359650B2, “Biomass pre-treatment for co-production of high-concentration C5- and C6-carbohydrates and their derivatives” (Wisconsin Alumni Research Foundation, priority 2013, dated 2016)
